Data reported in ChEMBL document CHEMBL1125950, “Synthesis, siderophore, and antimicrobial evaluation of a spermidine-based tricatecholate siderophore and carbacephalosporin conjugate” (1991).

What was measured:
Type in all cases: functional
Escherichia coli [1] = assay: Compound was evaluated for zone of stimulation of growth in Escherichia coli RWB18 at a concentration of 25 nM
Escherichia coli [2] = assay: Compound was evaluated for zone of stimulation of growth in Escherichia coli X580 at concentration of 25 nM
Escherichia coli [3] = assay: Compound was evaluated for zone of stimulation of growth in Escherichia coli RWB18 at a concentration of 5 nM
Escherichia coli [4] = assay: Compound was evaluated for zone of stimulation of growth in Escherichia coli RW193 at concentration of 5 nM
Escherichia coli [5] = assay: Compound was evaluated for zone of stimulation of growth in Escherichia coli RW193 at concentration of 25 nM
Escherichia coli [6] = assay: Compound was evaluated for zone of stimulation of growth in Escherichia coli X580 at concentration of 5 nM

Row | Compound | Zone of stimulation (Escherichia coli [1]) [mm] | Zone of stimulation (Escherichia coli [2]) [mm] | Zone of stimulation (Escherichia coli [3]) [mm] | Zone of stimulation (Escherichia coli [4]) [mm] | Zone of stimulation (Escherichia coli [5]) [mm] | Zone of stimulation (Escherichia coli [6]) [mm]
1 | O=C(O)CCC(=O)N(CCCCNC(=O)c1cccc(O)c1O)CCCNC(=O)c1cccc(O)c1O | 24 | – | – | – | – | –
2 | O=C(CCC(=O)N(CCCCNC(=O)c1cccc(O)c1O)CCCNC(=O)c1cccc(O)c1O)NCCCC[C@H](NC(=O)c1cccc(O)c1O)C(=O)O (stereo in doubt) | 24 | 22 | 16 | 22 | 28 | –
3 | O=C(CCC(=O)N(CCCCNC(=O)c1cccc(O)c1O)CCCNC(=O)c1cccc(O)c1O)NCCCC[C@H](NC(=O)c1cccc(O)c1O)C(=O)N[C@@H]1C(=O)N2C(C(=O)O)=C(Cl)CC[C@H]12 (stereo in doubt) | 20 | 12 | 12 | 12 | – | –
4 | O=C(CCC(=O)N(CCCCNC(=O)c1cccc(O)c1O)CCCNC(=O)c1cccc(O)c1O)NCCCC[C@H](NC(=O)c1cccc(O)c1O)C(=O)O (stereo in doubt; 7) | – | 20 | 24 | – | 24 | –
5 | O=C(CCC(=O)N(CCCCNC(=O)c1cccc(O)c1O)CCCNC(=O)c1cccc(O)c1O)NCCCC[C@H](NC(=O)c1cccc(O)c1O)C(=O)N[C@@H]1C(=O)N2C(C(=O)O)=C(Cl)CC[C@H]12 (stereo in doubt; 8) | 16 | 0 | 10 | – | 18 | –
6 | O=C(N[C@H]1COC(=O)[C@@H](NC(=O)c2cccc(O)c2O)COC(=O)[C@@H](NC(=O)c2cccc(O)c2O)COC1=O)c1cccc(O)c1O (stereo in doubt; form 1) [ENTEROBACTIN] | – | 38 | – | – | – | 24
7 | O=C(N[C@H]1COC(=O)[C@@H](NC(=O)c2cccc(O)c2O)COC(=O)[C@@H](NC(=O)c2cccc(O)c2O)COC1=O)c1cccc(O)c1O (stereo in doubt; form 2) [ENTEROBACTIN] | – | 40 | – | – | – | 30
